According to publication PMC7029871, “Development and validation of a sensitive LC-MS/MS method for the quantitation of IMB-YH-4py5-2H, an antituberculosis candidate, and its application to the pharmacokinetic study” (PLoS ONE, 2020):
Like-named read-outs stand apart in the source and are kept apart here.

Key:
[1] = Pharmacokinetic study in rats, single oral dose; assay type: in vivo, Sprague-Dawley rats; conditions: for AUC(0-inf) / CL/F / MRT / Tmax / AUC(0-t) / Vd/F / half-life / Cmax: both sexes, Sprague-Dawley; for AUC(0-inf) / CL/F / MRT / Tmax / AUC(0-t) / Vd/F / half-life: plasma, rat; for AUC(0-t): read-out: AUC0-60; for Vd/F: read-out: Vz/F; for half-life: po; for Cmax: rat plasma
Procedure: A total of 18 adult SD rats were randomly divided into three dosing groups (half male and half female). IMB-YH-4py5-2H suspensions were freshly prepared in 1% (w/v) sodium carboxymethyl cellulose (CMC-Na). The rats were fasted with free access to water for 12 h prior to the oral administration of IMB-YH-4py5-2H at doses of 50, 100 or 200 mg/kg and fasted for another 2 h after administration. Blood samples of 0.2 mL were collected via the post-orbital venous plexus vein at 0.033, 0.083, 0.167, 0.333, 0.5, 0.75, 1, 1.5, 2, 4, 6, 8, 12, 24, 36, 48, and 60 h post dosing into a heparinized tube. Plasma samples, obtained by centrifuging blood at 2300 × g for 15 min at 4°C, were stored at −20°C until analysis.
The pharmacokinetic parameters of IMB-YH-4py5-2H were calculated by WinNonlin (Version 6.1, Pharsight Corp., Mountain View, CA, USA) using a non-compartmental model. Data were expressed as the mean ± standard deviation (S.D.).

[2] = biological target: T1, CYP1A2 (Homo sapiens, UniProt P05177); assay: Metabolism by recombinant human P450 enzyme; assay type: in vitro ADME; conditions: recombinant CYP1A2 0.05 nmol/mL, 1 μM, 30 min
T1 construct: purchased Corning (Woburn, MA, USA)
T1 sequence (P05177 1-516): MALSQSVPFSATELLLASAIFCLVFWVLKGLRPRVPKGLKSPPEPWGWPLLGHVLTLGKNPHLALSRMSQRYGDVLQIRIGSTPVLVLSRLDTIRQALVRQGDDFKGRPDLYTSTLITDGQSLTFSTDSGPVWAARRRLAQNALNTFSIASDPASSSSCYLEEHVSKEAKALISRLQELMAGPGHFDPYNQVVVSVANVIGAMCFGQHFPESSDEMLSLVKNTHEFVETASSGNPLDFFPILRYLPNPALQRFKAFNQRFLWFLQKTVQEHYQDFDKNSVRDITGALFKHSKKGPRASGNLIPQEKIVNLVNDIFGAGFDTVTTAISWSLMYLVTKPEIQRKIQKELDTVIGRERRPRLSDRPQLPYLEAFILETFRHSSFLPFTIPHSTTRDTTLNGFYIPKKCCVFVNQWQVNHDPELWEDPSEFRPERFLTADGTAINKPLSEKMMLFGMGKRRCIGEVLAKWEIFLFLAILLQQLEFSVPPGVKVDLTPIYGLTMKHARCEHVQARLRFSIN
Procedure: (§1) In addition, to characterize the enzymes that may be involved in microsomal metabolism, IMB-YH-4py5-2H was incubated at 37°C for 30 min with different recombinant human P450 enzymes, i.e., CYP1A2, CYP2A6, CYP2B6, CYP2C8, CYP2C9, CYP2C19, CYP2D6, CYP2E1, CYP3A4 and CYP3A5. The incubation system included CYP isoenzyme at a final concentration of 0.05 nmol/mL, 100 mM PBS (pH 7.4) or 100 mmol/L Tris buffer (pH 7.5, Tris buffer was used in the CYP2C9 and CYP2A6 reaction systems and PBS was used for the other enzymes), NADPH regeneration system, and 1 μM IMB-YH-4py5-2H.
(§2) After incubation, the samples were processed as described in “Sample processing”. All experiments were performed in triplicate. The concentration of IMB-YH-4py5-2H was measured using LC-MS/MS analysis.

[3] = biological target: T2, CYP2A6 (Homo sapiens, UniProt P11509); assay: Metabolism by recombinant human P450 enzyme; assay type: in vitro ADME; conditions: recombinant CYP2A6 0.05 nmol/mL, 1 μM, 30 min
T2 construct: purchased Corning (Woburn, MA, USA)
T2 sequence (P11509 1-494): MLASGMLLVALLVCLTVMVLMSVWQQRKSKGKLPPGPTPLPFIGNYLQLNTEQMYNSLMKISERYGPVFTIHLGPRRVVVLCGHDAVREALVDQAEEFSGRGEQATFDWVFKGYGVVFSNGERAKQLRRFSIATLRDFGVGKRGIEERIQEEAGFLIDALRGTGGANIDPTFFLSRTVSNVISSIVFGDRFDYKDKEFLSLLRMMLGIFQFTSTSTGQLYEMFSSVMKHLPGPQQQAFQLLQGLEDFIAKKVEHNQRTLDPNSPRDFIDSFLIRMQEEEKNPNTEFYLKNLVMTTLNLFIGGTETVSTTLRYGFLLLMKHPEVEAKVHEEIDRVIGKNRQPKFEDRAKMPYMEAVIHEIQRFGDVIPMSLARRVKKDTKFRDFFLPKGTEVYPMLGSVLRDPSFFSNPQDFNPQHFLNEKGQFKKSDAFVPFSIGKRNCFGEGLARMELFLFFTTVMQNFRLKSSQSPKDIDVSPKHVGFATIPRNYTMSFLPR
Procedure: as §1, §2

[4] = biological target: T3, CYP2B6 (Homo sapiens, UniProt P20813); assay: Metabolism by recombinant human P450 enzyme; assay type: in vitro ADME; conditions: recombinant CYP2B6 0.05 nmol/mL, 1 μM, 30 min
T3 construct: purchased Corning (Woburn, MA, USA)
T3 sequence (P20813 1-491): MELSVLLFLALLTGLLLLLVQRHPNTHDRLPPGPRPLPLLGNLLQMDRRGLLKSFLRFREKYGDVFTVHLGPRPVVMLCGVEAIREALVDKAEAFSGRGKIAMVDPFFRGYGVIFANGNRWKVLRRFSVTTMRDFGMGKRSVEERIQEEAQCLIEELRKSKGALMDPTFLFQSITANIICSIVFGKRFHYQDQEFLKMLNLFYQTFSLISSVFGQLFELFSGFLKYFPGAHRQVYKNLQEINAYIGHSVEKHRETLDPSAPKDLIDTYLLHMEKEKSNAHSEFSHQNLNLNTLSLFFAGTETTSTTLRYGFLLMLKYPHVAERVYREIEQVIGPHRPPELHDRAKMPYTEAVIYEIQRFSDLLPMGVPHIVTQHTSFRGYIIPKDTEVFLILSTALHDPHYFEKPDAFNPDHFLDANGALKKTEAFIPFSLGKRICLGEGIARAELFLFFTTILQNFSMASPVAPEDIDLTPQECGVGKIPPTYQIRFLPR
Procedure: as §1, §2

CN(C)C(=O)/C=C/C(=O)c1ccc(-c2ccncc2)cc1.Cl [IMB-YH-4py5-2H, (E)-N,N-dimethyl-4-oxo-4-(4-(pyridin-4-yl)phenyl)but-2-enamide hydrochloride]
AUC(0-inf) ([1]; single oral dose 50 mg/kg): 1.44 ± 0.37 µg·h/mL | CL/F ([1]; single oral dose 50 mg/kg): 36.8 L/h/kg | MRT ([1]; single oral dose 50 mg/kg): 7.63 ± 1.58 h | Tmax ([1]; single oral dose 50 mg/kg): 0.28 ± 0.08 h | AUC(0-t) ([1]; single oral dose 50 mg/kg): 1.4 ± 0.367 µg·h/mL | Vd/F ([1]; single oral dose 50 mg/kg): 379 ± 100 L/kg | AUC(0-inf) ([1]; single oral dose 100 mg/kg): 2.85 ± 0.43 µg·h/mL | CL/F ([1]; single oral dose 100 mg/kg): 36.6 L/h/kg | MRT ([1]; single oral dose 100 mg/kg): 7.7 ± 1.43 h | Tmax ([1]; single oral dose 100 mg/kg): 0.44 ± 0.09 h | AUC(0-t) ([1]; single oral dose 100 mg/kg): 2.84 ± 0.425 µg·h/mL | Vd/F ([1]; single oral dose 100 mg/kg): 336 ± 74 L/kg | AUC(0-inf) ([1]; single oral dose 200 mg/kg): 5.73 ± 0.664 µg·h/mL | CL/F ([1]; single oral dose 200 mg/kg): 35.3 L/h/kg | MRT ([1]; single oral dose 200 mg/kg): 10.7 ± 0.85 h | Tmax ([1]; single oral dose 200 mg/kg): 0.33 h | AUC(0-t) ([1]; single oral dose 200 mg/kg): 5.71 ± 0.659 µg·h/mL | Vd/F ([1]; single oral dose 200 mg/kg): 394 ± 58 L/kg | half-life ([1]; 50 mg/kg, single oral dose 50 mg/kg, read-out: t1/2 (converted)): 7.24 ± 1.61 h | half-life ([1]; 100 mg/kg, single oral dose 100 mg/kg, read-out: t1/2 (converted)): 6.37 ± 0.93 h | half-life ([1]; 200 mg/kg, oral, all three dosing groups (50, 100, 200 mg/kg), read-out: half-life (converted)): ~7 h | half-life ([1]; 200 mg/kg, single oral dose 200 mg/kg, read-out: t1/2 (converted)): 7.71 ± 0.41 h | Cmax ([1]; single oral dose 50 mg/kg): 0.367 ± 0.023 µg/mL | Cmax ([1]; single oral dose 100 mg/kg): 0.586 ± 0.0312 µg/mL | Cmax ([1]; single oral dose 200 mg/kg): 1.3 ± 0.194 µg/mL | AUC relative to that of YH-8 ([1]; following the same oral dose, YH-8 data ref 20): approximately 2.5 fold | metabolism by CYP isozyme [2]: high metabolic activity | metabolism by CYP isozyme [3]: high metabolic activity | metabolism by CYP isozyme [4]: high metabolic activity
